Measurements reported in ChEMBL document CHEMBL3044580, “Insecticide selectivity and behavioral response of the earwig Doru luteipes” (2011).
≈ marks a conversion by molar mass, not a printed value. Calls of active or inactive are those of the source. The calls are words filed in the database; no cut-off is given here.

Tests used:
Doru [1] = experiment: Insecticidal activity against adult Doru luteipes (earwigs) in compound treated maize leaf assessed as mortality measured by time-mortality bioassay; type: functional
Doru [2] = experiment: Relative toxicity in adult Doru luteipes (earwigs) in compound treated maize leaf assessed as mortality measured by time-mortality bioassay; type: functional
[3] = Selectivity ratio of LC50 for adult earwig species Doru luteipes to LC50 for second instar fall armyworm Spodoptera frugiperda by concentration-mortality bioassay; type: functional
Doru [4] = experiment: Insecticidal activity against adult Doru luteipes (earwigs) in compound treated maize leaf assessed as reduction in walking velocity in fully-treated arenas measured during 10 min compound exposure by behavioral locomotory bioassay; type: functional, organism-based
Doru [5] = experiment: Insecticidal activity against adult Doru luteipes earwigs) in compound treated maize leaf assessed as higher in number of stops in half-treated arenas measured during 10 min compound exposure by behavioral locomotory bioassay; type: functional, organism-based
Doru [6] = experiment: Insecticidal activity against adult Doru luteipes earwig ) in compound treated maize leaf assessed as higher resting time in half-treated arenas measured during 10 min compound exposure by behavioral locomotory bioassay; type: functional, organism-based
Doru [7] = experiment: Insecticidal activity against adult Doru luteipes (earwigs) in compound treated maize leaf assessed as mortality measured after 48 hr by concentration-mortality bioassay; type: functional
Spodoptera frugiperda [8] = experiment: Insecticidal activity in second instar Spodoptera frugiperda (fall armyworm) in compound treated maize leaf assessed as mortality measured after 48 hr by concentration-mortality bioassay; type: functional
Spodoptera frugiperda [9] = experiment: Relative toxicity in second instar Spodoptera frugiperda (fall armyworm) in compound treated maize leaf assessed as mortality measured by Time-mortality bioassay; type: functional
Doru [10] = experiment: Insecticidal activity against adult Doru luteipes (earwigs) in compound treated maize leaf assessed as reduction in distance walked in fully-treated arenas measured during 10 min compound exposure by behavioral locomotory bioassay; type: functional, organism-based
Doru [11] = experiment: Relative toxicity in adult Doru luteipes (earwigs) in compound treated maize leaf assessed as mortality measured after 48 hr by concentration-mortality bioassay; type: functional
Spodoptera frugiperda [12] = experiment: Relative toxicity in second instar Spodoptera frugiperda (fall armyworm) in compound treated maize leaf assessed as mortality measured after 48 hr by concentration-mortality bioassay; type: functional
Spodoptera frugiperda [13] = experiment: Insecticidal activity in second instar Spodoptera frugiperda (fall armyworm) in compound treated maize leaf assessed as mortality measured by Time-mortality bioassay; type: functional
Doru [14] = experiment: Insecticidal activity against adult Doru luteipes (earwigs) in compound treated maize leaf assessed as insect avoidance by behavioral bioassay; type: functional, organism-based

## CC[C@H]1CCC[C@H](O[C@H]2CC[C@H](N(C)C)[C@@H](C)O2)[C@@H](C)C(=O)C2=C[C@@H]3[C@@H](C=C(C)[C@@H]4C[C@@H](O[C@@H]5O[C@@H](C)[C@H](OC)[C@@H](OC)[C@H]5OC)C[C@@H]34)[C@@H]2CC(=O)O1.CC[C@H]1CCC[C@H](O[C@H]2CC[C@H](N(C)C)[C@@H](C)O2)[C@@H](C)C(=O)C2=C[C@@H]3[C@@H](C=C[C@@H]4C[C@@H](O[C@@H]5O[C@@H](C)[C@H](OC)[C@@H](OC)[C@H]5OC)C[C@@H]34)[C@@H]2CC(=O)O1
Doru [1]
  LT50: 11.43 h
Doru [2]
  Ratio: 6.61
[3]
  RatioLC50: 3530
Doru [4]
  inhibition: Active
Doru [5]
  inhibition: Active
Doru [6]
  inhibition: Active
Doru [7]
  LC50: 215 µg/mL
Spodoptera frugiperda [8]
  LC50: 0.04 µg/mL
Spodoptera frugiperda [9]
  Ratio: 2.77
Doru [10]
  inhibition: Active
Doru [11]
  Ratio: 3528
Spodoptera frugiperda [12]
  Ratio: 99.47
Spodoptera frugiperda [13]
  LT50: 47.17 min

## CC1(C)[C@H](/C=C(\Cl)C(F)(F)F)[C@@H]1C(=O)O[C@@H](C#N)c1cccc(Oc2ccccc2)c1 (relative stereo) [REL-LAMBDA CYHALOTHRIN]
Doru [1]
  LT50: 2.12 h
Doru [2]
  Ratio: 1.23
[3]
  RatioLC50: 23.7
Doru [7]
  LC50: 16.6 µg/mL (≈ 36.9 µM)
Spodoptera frugiperda [8]
  LC50: 0.7 µg/mL (≈ 1.56 µM)
Spodoptera frugiperda [9]
  Ratio: 1.47
Doru [11]
  Ratio: 45000
Spodoptera frugiperda [12]
  Ratio: 6
Spodoptera frugiperda [13]
  LT50: 25.03 min

## CNC(=O)c1cc(Cl)cc(C)c1NC(=O)c1cc(Br)nn1-c1ncccc1Cl [CHLORANTRANILIPROLE]
[3]
  RatioLC50: 980000
Spodoptera frugiperda [8]
  LC50: 0.77 µg/mL (≈ 1.59 µM)
Spodoptera frugiperda [9]
  Ratio: 4.97
Doru [11]
  Ratio: 1
Spodoptera frugiperda [12]
  Ratio: 5.46
Spodoptera frugiperda [13]
  LT50: 84.61 min

## CCOCn1c(-c2ccc(Cl)cc2)c(C#N)c(Br)c1C(F)(F)F [CHLORFENAPYR]
Doru [1]
  LT50: 21.58 h
Doru [2]
  Ratio: 12.48
[3]
  RatioLC50: 22.5
Doru [7]
  LC50: 53.3 µg/mL (≈ 131 µM)
Spodoptera frugiperda [8]
  LC50: 2.37 µg/mL (≈ 5.81 µM)
Spodoptera frugiperda [9]
  Ratio: 6.83
Doru [11]
  Ratio: 14000
Spodoptera frugiperda [12]
  Ratio: 1.78
Spodoptera frugiperda [13]
  LT50: 116.34 min
Doru [14]
  inhibition: Active

## CCOP(=S)(OCC)Oc1nc(Cl)c(Cl)cc1Cl [CHLORPYRIFOS]
Doru [1]
  LT50: 1.73 h
Doru [2]
  Ratio: 1
[3]
  RatioLC50: 1.2
Doru [7]
  LC50: 1.4 µg/mL (≈ 3.99 µM)
Spodoptera frugiperda [8]
  LC50: 1.18 µg/mL (≈ 3.37 µM)
Spodoptera frugiperda [9]
  Ratio: 1.26
Doru [11]
  Ratio: 550000
Spodoptera frugiperda [12]
  Ratio: 3.57
Spodoptera frugiperda [13]
  LT50: 21.52 min
Doru [14]
  inhibition: Active

## CC1(C)[C@H](C(=O)O[C@H](C#N)c2cccc(Oc3ccccc3)c2)[C@@H]1C=C(Br)Br [DELTAMETHRIN]
[3]
  RatioLC50: 152
Doru [7]
  LC50: 22.6 µg/mL (≈ 44.7 µM)
Spodoptera frugiperda [8]
  LC50: 0.18 µg/mL (≈ 0.356 µM)
Spodoptera frugiperda [9]
  Ratio: 2.63
Doru [11]
  Ratio: 33000
Spodoptera frugiperda [12]
  Ratio: 23.2
Spodoptera frugiperda [13]
  LT50: 44.84 min

## CCOc1ccc(C(C)(C)COCc2cccc(Oc3ccccc3)c2)cc1 [ETOFENPROX]
[3]
  RatioLC50: 198
Doru [7]
  LC50: 668 µg/mL (≈ 1770 µM)
Spodoptera frugiperda [8]
  LC50: 3.37 µg/mL (≈ 8.95 µM)
Spodoptera frugiperda [9]
  Ratio: 1
Doru [11]
  Ratio: 1133.5
Spodoptera frugiperda [12]
  Ratio: 1.25
Spodoptera frugiperda [13]
  LT50: 17.03 min
Doru [14]
  inhibition: Active

## CNC(=O)ON=C(C)SC [METHOMYL]
[3]
  RatioLC50: 517
Doru [7]
  LC50: 2180 µg/mL (≈ 13400 µM)
Spodoptera frugiperda [8]
  LC50: 4.21 µg/mL (≈ 26 µM)
Spodoptera frugiperda [9]
  Ratio: 1.71
Doru [11]
  Ratio: 348
Spodoptera frugiperda [12]
  Ratio: 1
Spodoptera frugiperda [13]
  LT50: 29.18 min
